Consider 47 molecules from ChEMBL document CHEMBL4699598, “Discovery of Novel Substituted N-(4-Amino-2-chlorophenyl)-5-chloro-2-hydroxybenzamide Analogues as Potent Human Adenovirus Inhibitors” (J Med Chem, 2020).

Data set [1] can be described thus: Cytotoxicity against human A549 cells assessed as reduction in cell viability incubated for 48 hrs by alamarBlue assay. It is filed as cell-based. Background: Resazurin is reduced to fluorescent resorufin, in cell work by metabolically active cells.
Data set [2] relates to Human adenovirus 5. In words: Antiviral activity against Human adenovirus 5 infected in 293beta5 cells assessed as inhibition of plaque formation at 10 uM incubated for 7 days by GFP reporter gene assay relative to control. Format: functional. Particulars: Human mastadenovirus C, HEK293, 168 h, time 7 day.
Data set [3] is described as follows: Selectivity index, ratio of CC50 for cytotoxicity against human A549 cells assessed as reduction in cell viability incubated for 48 hrs by alamarBlue assay to IC50 for antiviral activity against Human adenovirus 5 infected in 293beta5 cells assessed as inhibition of plaque formation incubated for 7 days by GFP reporter gene assay. Particulars: read-out: Ratio CC50/IC50. It is filed as toxicity, cell-based.

The subject of data set [4] is Human adenovirus 5. The experiment in a line: Antiviral activity against GFP-fused Human adenovirus 5 infected in 293beta5 cells assessed as inhibition of plaque formation incubated for 7 days by GFP reporter gene assay. It is filed as functional, organism-based. The settings on record: Human mastadenovirus C, HEK293, 168 h. (In a reporter assay the amount or activity of a reporter protein is the signal.)

Each structure is given as a SMILES string. pIC50: −log10 of the molar value.

The term CC50 denotes the concentration at which the toxic effect on the cells reaches its halfway point. In the case of `O=C(Nc1ccc(NCCCO)cc1Cl)c1cc(Cl)ccc1O`, the CC50 at 48 h in data set [1] stood at 106 µM.
What is called inhibition is the relative decrease from the control value, in per cent. As to `CC(=O)Nc1ccc(NC(=O)c2cc(Cl)ccc2O)c(Cl)c1`, the inhibition at 10 µM in data set [2] was determined as 0%.
A word on the pIC50: it is −log10 of the IC50, conventionally taken in molar units. On to `CC(C)(C)OC(=O)N1CCC(Nc2ccc(NC(=O)c3cc(Cl)ccc3O)c(Cl)c2)CC1`, for which the selectivity ratio at 48 h in data set [3] worked out at 82.6. Besides, the CC50 at 48 h in data set [1] was 100 µM. Further, in data set [4], the pIC50 is 5.92.
The corresponding values for `O=C(Nc1ccc(NCc2cc(F)cc(Cl)c2)cc1Cl)c1cc(Cl)ccc1O` are 8.7, 11.1 µM and 5.89.
With `O=C(Nc1ccc(NCc2ccccc2)cc1Cl)c1cc(Cl)ccc1O`, in data set [2], the inhibition at 10 µM stood at 100%. The selectivity ratio at 48 h in data set [3] was determined as 7.8. The CC50 at 48 h in data set [1] was 19.7 µM. Moreover, the pIC50 in data set [4] is 5.60.
For `CCCNc1ccc(NC(=O)c2cc(Cl)ccc2O)c(Cl)c1`, in that order: 100%, 4.5, 22.5 µM and 5.30.
Take `CN1CCC(CNc2ccc(NC(=O)c3cc(Cl)ccc3O)c(Cl)c2)CC1`: the inhibition at 10 µM in data set [2] was 0%.
With `COc1ccc(CNc2ccc(NC(=O)c3cc(Cl)ccc3O)c(Cl)c2)cc1`, the inhibition at 10 µM in data set [2] was 100%. For the same molecule, the selectivity ratio at 48 h in data set [3] was found to be 22.4. Moreover, the CC50 at 48 h in data set [1] was 80.7 µM. In addition, in data set [4], the pIC50 is 5.44.
`O=C(Nc1ccc(NCC2CCCC2)cc1Cl)c1cc(Cl)ccc1O`: the inhibition at 10 µM in data set [2] was 100%. In addition, the selectivity ratio at 48 h in data set [3] stood at 17.3. The CC50 at 48 h in data set [1] came to 21.5 µM. In addition, the pIC50 in data set [4] is 5.91.
`O=C(Nc1ccc(NCc2cc(F)cc(C(F)(F)F)c2)cc1Cl)c1cc(Cl)ccc1O`: the inhibition at 10 µM in data set [2] is 100%. Also, in data set [3], the selectivity ratio at 48 h was 26.7. Moreover, the CC50 at 48 h in data set [1] is 30.9 µM. The pIC50 in data set [4] is 5.94.
For `CC1(ON(c2ccc(NC(=O)c3cc(Cl)ccc3O)c(Cl)c2)C2(C)CCCC2)CCCC1`, in that order: 100%, 24.3, 18 µM and 6.13.
The corresponding values for `O=C(Nc1ccc(NC2CCCC2)c(Cl)c1)c1cc(Cl)ccc1O` are 100%, 20.1, 16.9 µM and 6.08.
For `O=C(Nc1ccc(NCc2cccc(C(F)(F)F)c2)cc1Cl)c1cc(Cl)ccc1O`, in that order: 100%, 15.2, 13.3 µM and 6.06.
With `O=C(Nc1ccc(NCc2ccc(Br)s2)cc1Cl)c1cc(Cl)ccc1O`, in data set [2], the inhibition at 10 µM amounted to 100%. Also, in data set [3], the selectivity ratio at 48 h was found to be 8. Also, in data set [1], the CC50 at 48 h is 20.7 µM. Also, in data set [4], the pIC50 is 5.59.
For `O=C(Nc1ccc(NCc2cnccc2Cl)cc1Cl)c1cc(Cl)ccc1O`, in that order: 100%, 75.7, 126 µM and 5.78.
On to `O=C(Nc1ccc(NCc2cc(Cl)cc(C(F)(F)F)c2)cc1Cl)c1cc(Cl)ccc1O`, for which, in data set [3], the selectivity ratio at 48 h is 17.3. Also, in data set [1], the CC50 at 48 h came to 30.9 µM. Moreover, in data set [4], the pIC50 is 5.75.
With `O=C(Nc1cc(NC2CCCC2)ccc1F)c1cc(Cl)ccc1O`, the selectivity ratio at 48 h in data set [3] turned out to be 32.8. Also, the CC50 at 48 h in data set [1] came to 44 µM. Moreover, in data set [4], the pIC50 was 5.87.
Regarding `O=C(Nc1ccc(N(CC2CC2)CC2CC2)cc1Cl)c1cc(Cl)ccc1O`, in data set [2], the inhibition at 10 µM came out at 100%. Moreover, in data set [3], the selectivity ratio at 48 h is 20.7. Also, the CC50 at 48 h in data set [1] was determined as 12.8 µM. The pIC50 in data set [4] is 6.21.
The corresponding values for `CCNc1ccc(NC(=O)c2cc(Cl)ccc2O)c(Cl)c1` are 100%, 13.9, 30.2 µM and 5.66.
For `O=C(Nc1ccc(NCc2ccncc2)cc1Cl)c1cc(Cl)ccc1O`, in that order: 100%, 24.6, 65.3 µM and 5.58.
For `CCN(CC)c1ccc(NC(=O)c2cc(Cl)ccc2O)c(Cl)c1`, in that order: 100%, 64.5, 55.5 µM and 6.07.
As for `O=C(Nc1ccc(NCc2ccc(Br)cc2)cc1Cl)c1cc(Cl)ccc1O`, the inhibition at 10 µM in data set [2] is 100%. In addition, the selectivity ratio at 48 h in data set [3] was determined as 22.2. The CC50 at 48 h in data set [1] turned out to be 40.9 µM. Also, the pIC50 in data set [4] was 5.74.
Take `CN(C)c1ccc(CNc2ccc(NC(=O)c3cc(Cl)ccc3O)c(Cl)c2)cc1`: the inhibition at 10 µM in data set [2] was 100%. Besides, the selectivity ratio at 48 h in data set [3] is 9. For the same molecule, in data set [1], the CC50 at 48 h stood at 24.5 µM. The pIC50 in data set [4] was 5.56.
On to `CC(C)[C@H](NC(=O)c1cc(Cl)ccc1O)C(=O)Nc1ccc([N+](=O)[O-])cc1Cl`, for which, in data set [3], the selectivity ratio at 48 h is 444. Moreover, in data set [4], the pIC50 is 6.35.
Turning to `O=C(Nc1ccc(NCc2cc(Cl)cc(Cl)c2)cc1Cl)c1cc(Cl)ccc1O`, in data set [2], the inhibition at 10 µM is 100%. The selectivity ratio at 48 h in data set [3] was 9.3. For the same molecule, the CC50 at 48 h in data set [1] stood at 13.3 µM. The pIC50 in data set [4] is 5.84.
With `O=C(NCc1ccc(NC2CCCC2)cc1Cl)c1cc(Cl)ccc1O`, the selectivity ratio at 48 h in data set [3] was found to be 3.6. For the same molecule, the CC50 at 48 h in data set [1] is 28.3 µM. The pIC50 in data set [4] is 5.10.
Consider `CC(C)(C)OC(=O)NCCNc1ccc(NC(=O)c2cc(Cl)ccc2O)c(Cl)c1`, for which, in data set [2], the inhibition at 10 µM is 100%. Also, the selectivity ratio at 48 h in data set [3] was determined as 9. Besides, the CC50 at 48 h in data set [1] is 25 µM. For the same molecule, in data set [4], the pIC50 was 5.56.
Turning to `CN1CCC(Oc2ccc(Cl)cc2C(=O)Nc2ccc(NC3CCCC3)cc2Cl)CC1`, the inhibition at 10 µM in data set [2] stood at 0%.
Consider `O=C(Nc1ccc(NC2CCCC2)cc1F)c1cc(Cl)ccc1O`, for which, in data set [3], the selectivity ratio at 48 h was 49.1. In addition, in data set [1], the CC50 at 48 h was found to be 51 µM. Also, the pIC50 in data set [4] was 5.98.
As to `O=C(Nc1ccc(NCc2cccnc2Cl)cc1Cl)c1cc(Cl)ccc1O`, the inhibition at 10 µM in data set [2] came to 100%. Further, the selectivity ratio at 48 h in data set [3] is 21. Further, the CC50 at 48 h in data set [1] came out at 100 µM. Further, in data set [4], the pIC50 is 5.32.
The corresponding values for `CCCCCCCCC(C)Nc1ccc(NC(=O)c2cc(Cl)ccc2O)c(Cl)c1` (stereo not drawn) are 100%, 18.1, 21.9 µM and 5.92.
`CC(C)Nc1ccc(NC(=O)c2cc(Cl)ccc2O)c(Cl)c1`: the inhibition at 10 µM in data set [2] was 100%. The selectivity ratio at 48 h in data set [3] came out at 12.5. The CC50 at 48 h in data set [1] is 11 µM. Further, in data set [4], the pIC50 was 6.06.
Regarding `O=C(Nc1ccc(NC2CCCCC2)cc1Cl)c1cc(Cl)ccc1O`, the selectivity ratio at 48 h in data set [3] is 51.1. The CC50 at 48 h in data set [1] worked out at 68.3 µM. Moreover, the pIC50 in data set [4] is 5.87.
`CCCN(CCC)c1ccc(NC(=O)c2cc(Cl)ccc2O)c(Cl)c1`: the inhibition at 10 µM in data set [2] amounted to 100%. For the same molecule, in data set [3], the selectivity ratio at 48 h came to 16. In addition, the CC50 at 48 h in data set [1] is 10.7 µM. Also, in data set [4], the pIC50 is 6.17.
In the case of `Nc1ccc(NC(=O)c2cc(Cl)ccc2O)c(Cl)c1`, in data set [2], the inhibition at 10 µM came out at 0%.
Regarding `CS(=O)(=O)Nc1ccc(Cl)cc1C(=O)Nc1ccc(NC2CCCC2)cc1Cl`, the selectivity ratio at 48 h in data set [3] came to 20.6. For the same molecule, the CC50 at 48 h in data set [1] came to 35.4 µM. Also, the pIC50 in data set [4] was 5.76.
Regarding `O=C(Nc1cc(F)cc(C(F)(F)F)c1)c1cc(Cl)ccc1O`, in data set [3], the selectivity ratio at 48 h was determined as 667. In addition, in data set [4], the pIC50 is 6.74.
For the molecule `O=C(Nc1ccc(NC2CCCC2)cc1)c1cc(Cl)ccc1O`, the selectivity ratio at 48 h in data set [3] was found to be 3.9. The CC50 at 48 h in data set [1] worked out at 10 µM. In addition, the pIC50 in data set [4] was 5.59.
With `O=C(Nc1ccc(N(CCCO)CCCO)cc1Cl)c1cc(Cl)ccc1O`, the CC50 at 48 h in data set [1] amounted to 114 µM.
In the case of `O=C(Nc1ccc(NCc2ccc(Cl)cc2)cc1Cl)c1cc(Cl)ccc1O`, in data set [2], the inhibition at 10 µM was 100%. Moreover, in data set [3], the selectivity ratio at 48 h is 49.7. In addition, the CC50 at 48 h in data set [1] was found to be 59.7 µM. For the same molecule, the pIC50 in data set [4] was 5.92.
For `CC(C)CNc1ccc(NC(=O)c2cc(Cl)ccc2O)c(Cl)c1`, in that order: 100%, 67.4, 60 µM and 6.05.
As for `CC(C)[C@H](NC(=O)c1cc(Cl)ccc1O)C(=O)Nc1ccc(NC2CCCC2)cc1Cl`, in data set [3], the selectivity ratio at 48 h came to 28.9. Moreover, the CC50 at 48 h in data set [1] is 111 µM. In addition, the pIC50 in data set [4] was 5.42.
As for `Cc1ccc(O)c(C(=O)Nc2ccc(NC3CCCC3)cc2Cl)c1`, the selectivity ratio at 48 h in data set [3] came to 11.4. Further, in data set [1], the CC50 at 48 h amounted to 30.9 µM. For the same molecule, the pIC50 in data set [4] was 5.57.
For `O=C(Nc1ccc(NCc2cc(C(F)(F)F)cc(C(F)(F)F)c2)cc1Cl)c1cc(Cl)ccc1O`, the inhibition at 10 µM in data set [2] amounted to 100%. The selectivity ratio at 48 h in data set [3] was 82.9. In data set [1], the CC50 at 48 h came out at 92.8 µM. In addition, the pIC50 in data set [4] is 5.95.
Take `O=C(Nc1ccc(NCc2ccc3cn[nH]c3c2)cc1Cl)c1cc(Cl)ccc1O`: in data set [3], the selectivity ratio at 48 h is 9.7. Also, in data set [1], the CC50 at 48 h came out at 45.3 µM. The pIC50 in data set [4] is 5.33.
For the molecule `O=C(Nc1ccc(NCc2ccc(F)cc2)cc1Cl)c1cc(Cl)ccc1O`, in data set [2], the inhibition at 10 µM amounted to 100%. Besides, the selectivity ratio at 48 h in data set [3] is 16. Further, the CC50 at 48 h in data set [1] amounted to 54.4 µM. Further, the pIC50 in data set [4] is 5.47.
Regarding `O=C(Nc1ccc(NCc2ccc(C(F)(F)F)cc2)cc1Cl)c1cc(Cl)ccc1O`, the selectivity ratio at 48 h in data set [3] was determined as 43.8. In addition, in data set [1], the CC50 at 48 h turned out to be 62.7 µM. Further, in data set [4], the pIC50 was 5.84.
